Measurements reported in ChEMBL document CHEMBL5376002, “A Hybrid Antimicrobial Peptide Targeting Staphylococcus aureus with a Dual Function of Inhibiting Quorum Sensing Signaling and an Antibacterial Effect” (J Med Chem, 2023).
Converted amounts (≈) assume the structure as drawn. The source made the active and inactive calls. The rule behind the calls is not given here. Bridge positions count the residues as written; N and C are the ends. Square brackets hold non-standard residues; d marks the D form. Peptide text beside a SMILES is read from it. Dab = NCC[C@H](N)C(=O)O

How the values were obtained:
Staphylococcus aureus [1] = test: Antibacterial activity against Staphylococcus aureus ATCC 6538p assessed as inhibition of bacterial growth incubated for 18 to 24 hrs; assay type: functional; conditions: time 18-24 hrs
Staphylococcus aureus [2] = test: Bactericidal activity against Staphylococcus aureus ATCC 6538p assessed as inhibition of bacterial growth incubated for 18 to 24 hrs; assay type: functional; conditions: time 18-24 hrs
Staphylococcus aureus [3] = test: Antibacterial activity against Staphylococcus aureus ATCC 12600 assessed as inhibition of bacterial growth incubated for 18 to 24 hrs; assay type: functional; conditions: time 18-24 hrs
Staphylococcus aureus [4] = test: Bactericidal activity against Staphylococcus aureus ATCC 12600 assessed as inhibition of bacterial growth incubated for 18 to 24 hrs; assay type: functional; conditions: time 18-24 hrs
Staphylococcus aureus [5] = test: Antibacterial activity against Staphylococcus aureus ATCC 43300 assessed as inhibition of bacterial growth incubated for 18 to 24 hrs; assay type: functional; conditions: time 18-24 hrs
Staphylococcus aureus [6] = test: Bactericidal activity against Staphylococcus aureus ATCC 43300 assessed as inhibition of bacterial growth incubated for 18 to 24 hrs; assay type: functional; conditions: time 18-24 hrs
[7] = test system: Staphylococcus epidermidis; test: Antibacterial activity against Staphylococcus epidermidis ATCC 12228 assessed as inhibition of bacterial growth incubated for 18 to 24 hrs; assay type: functional; conditions: time 18-24 hrs
[8] = test system: Staphylococcus epidermidis; test: Bactericidal activity against Staphylococcus epidermidis ATCC 12228 assessed as inhibition of bacterial growth incubated for 18 to 24 hrs; assay type: functional; conditions: time 18-24 hrs
Streptococcus pneumoniae [9] = test: Antibacterial activity against Streptococcus pneumoniae ATCC 49619 assessed as inhibition of bacterial growth incubated for 18 to 24 hrs; assay type: functional; conditions: time 18-24 hrs
Streptococcus pneumoniae [10] = test: Bactericidal activity against Streptococcus pneumoniae ATCC 49619 assessed as inhibition of bacterial growth incubated for 18 to 24 hrs; assay type: functional; conditions: time 18-24 hrs
[11] = test system: Staphylococcus saprophyticus; test: Antibacterial activity against Staphylococcus saprophyticus ATCC BAA-750 assessed as inhibition of bacterial growth incubated for 18 to 24 hrs; assay type: functional; conditions: time 18-24 hrs
[12] = test system: Staphylococcus saprophyticus; test: Bactericidal activity against Staphylococcus saprophyticus ATCC BAA-750 assessed as inhibition of bacterial growth incubated for 18 to 24 hrs; assay type: functional; conditions: time 18-24 hrs
Streptococcus mutans [13] = test: Antibacterial activity against Streptococcus mutans UA159 assessed as inhibition of bacterial growth incubated for 18 to 24 hrs; assay type: functional; conditions: time 18-24 hrs
Streptococcus mutans [14] = test: Bactericidal activity against Streptococcus mutans UA159 assessed as inhibition of bacterial growth incubated for 18 to 24 hrs; assay type: functional; conditions: time 18-24 hrs
Streptococcus mutans [15] = test: Antibacterial activity against Streptococcus mutans ATCC 25175 assessed as inhibition of bacterial growth incubated for 18 to 24 hrs; assay type: functional; conditions: time 18-24 hrs
Streptococcus mutans [16] = test: Bactericidal activity against Streptococcus mutans ATCC 25175 assessed as inhibition of bacterial growth incubated for 18 to 24 hrs; assay type: functional; conditions: time 18-24 hrs
Escherichia coli [17] = test: Antibacterial activity against Escherichia coli ATCC 25922 assessed as inhibition of bacterial growth incubated for 18 to 24 hrs; assay type: functional; conditions: time 18-24 hrs
Escherichia coli [18] = test: Bactericidal activity against Escherichia coli ATCC 25922 assessed as inhibition of bacterial growth incubated for 18 to 24 hrs; assay type: functional; conditions: time 18-24 hrs
RAW264.7 [19] = test: Cytotoxicity against mouse RAW264.7 cells assessed as cell viability incubated for 48 hrs by MTT assay; assay type: functional
RAW264.7 [20] = test: Cytotoxicity against mouse RAW264.7 cells assessed as cell viability upto 125 uM incubated for 48 hrs by MTT assay; assay type: functional, cell-based
[21] = Binding affinity to AgrC-I extra-loop-I (unknown origin) assessed as dissociation constant incubated for 10 mins by isothermal titration calorimetry analysis
[22] = Binding affinity to AgrC-I extra-loop-II (unknown origin) assessed as dissociation constant incubated for 10 mins by isothermal titration calorimetry analysis
[23] = Binding affinity to AgrC-I extra-loop-III (unknown origin) assessed as dissociation constant incubated for 10 mins by isothermal titration calorimetry analysis
[24] = Binding affinity to AgrC-I extra-loop-I (unknown origin) assessed as change in enthalpy incubated for 10 mins by isothermal titration calorimetry analysis
[25] = Binding affinity to AgrC-I extra-loop-II (unknown origin) assessed as change in enthalpy incubated for 10 mins by isothermal titration calorimetry analysis
[26] = Binding affinity to AgrC-I extra-loop-III (unknown origin) assessed as change in enthalpy incubated for 10 mins by isothermal titration calorimetry analysis
Homo sapiens [27] = species on record: Homo sapiens; test: Binding affinity to AgrC-I extra-loop-I (unknown origin) assessed as gibbs free energy change incubated for 10 mins by isothermal titration calorimetry analysis
Homo sapiens [28] = species on record: Homo sapiens; test: Binding affinity to AgrC-I extra-loop-II (unknown origin) assessed as gibbs free energy change incubated for 10 mins by isothermal titration calorimetry analysis
Homo sapiens [29] = species on record: Homo sapiens; test: Binding affinity to AgrC-I extra-loop-III (unknown origin) assessed as gibbs free energy change incubated for 10 mins by isothermal titration calorimetry analysis
Homo sapiens [30] = species on record: Homo sapiens; test: Binding affinity to AgrC-I extra-loop-I (unknown origin) assessed as change in entropy incubated for 10 mins by isothermal titration calorimetry analysis
Homo sapiens [31] = species on record: Homo sapiens; test: Binding affinity to AgrC-I extra-loop-II (unknown origin) assessed as change in entropy incubated for 10 mins by isothermal titration calorimetry analysis
Homo sapiens [32] = species on record: Homo sapiens; test: Binding affinity to AgrC-I extra-loop-III (unknown origin) assessed as change in entropy incubated for 10 mins by isothermal titration calorimetry analysis
Staphylococcus aureus [33] = test: Antivirulence activity against Staphylococcus aureus assessed as downregulation of RNAIII expression level at 1 to 100 uM incubated for 24 hrs by qRT-PCR analysis; assay type: functional, organism-based; conditions: dose 1-100 µM
Staphylococcus aureus [34] = test: Antivirulence activity against Staphylococcus aureus assessed as downregulation of hla expression level at 1 to 100 uM incubated for 24 hrs by qRT-PCR analysis; assay type: functional, organism-based; conditions: dose 1-100 µM
Staphylococcus aureus [35] = test: Antivirulence activity against Staphylococcus aureus assessed as downregulation of psm-alpha expression level at 1 to 100 uM incubated for 24 hrs by qRT-PCR analysis; assay type: functional, organism-based; conditions: dose 1-100 µM
Erythrocyte = test: Hemolytic activity in rat RBC assessed as hemolysis measured after 20 hrs; assay type: toxicity, cell-based
Staphylococcus aureus [36] = test: Inhibition of biofilm formation in Staphylococcus aureus incubated for 24 hrs by crystal violet staining based microscopic analysis; assay type: functional, organism-based
Cell membrane [37] = test: Induction of cell membrane damage in Staphylococcus aureus ATCC 6538p assessed as increase in nucleic acid leakage measured up to 30 mins by UV-spectrophotometer analysis; assay type: subcellular
Cell membrane [38] = test: Induction of cell membrane damage in Staphylococcus aureus ATCC 6538p assessed as increase in fluorescent intensity incubated for 30 mins by PI staining based flow cytometry assay
[39] = Inhibition of quorum sensing system in Staphylococcus aureus ATCC 6538p assessed as downregulation of RNAIII expression level incubated for 24 hrs by qRT-PCR analysis; conditions: dose 1-100 µM
[40] = Inhibition of quorum sensing system in Staphylococcus epidermidis ATCC 12228 assessed as downregulation of RNAIII expression level at 1 to 100 uM incubated for 24 hrs by qRT-PCR analysis; conditions: dose 1-100 µM
[41] = Inhibition of quorum sensing system in Staphylococcus saprophyticus ATCC BAA-750 assessed as downregulation of RNAIII expression level at 1 to 100 uM incubated for 24 hrs by qRT-PCR analysis; conditions: dose 1-100 µM
Staphylococcus aureus [42] = test: Antivirulence activity against Staphylococcus aureus ATCC 6538p assessed as downregulation of RNAIII expression level at 2.5 uM measured for 28 passages by qRT-PCR analysis; assay type: functional, organism-based
Staphylococcus aureus [43] = test: Bactericidal activity against Staphylococcus aureus assessed as inhibition of bacterial growth at 31.25 uM incubated for 120 mins; assay type: functional, organism-based
Staphylococcus aureus [44] = test: Inhibition of biofilm formation in Staphylococcus aureus at 0.78 to 1.56 uM incubated for 24 hrs by crystal violet staining based analysis; assay type: functional, organism-based; conditions: dose 0.78-1.56 µM
Staphylococcus aureus [45] = test: Inhibition of biofilm formation in Staphylococcus aureus at 0.39 uM incubated for 24 hrs by crystal violet staining based analysis; assay type: functional, organism-based
[46] = Toxicity in Kunming mouse infected with Staphylococcus aureus ATCC 6538p assessed as animal survival rate 5 mg/kg, ip pre-infected with bacteria for 1 hr followed by compound administration and measured after 7 days; assay type: organism-based; conditions: in vivo, 168 h, time 7 day

| Compound | MIC (Staphylococcus aureus [1]) | MBC (Staphylococcus aureus [2]) | MIC (Staphylococcus aureus [3]) | MBC (Staphylococcus aureus [4]) | MIC (Staphylococcus aureus [5]) | MBC (Staphylococcus aureus [6]) | MIC [7] | MBC [8] | MIC (Streptococcus pneumoniae [9]) | MBC (Streptococcus pneumoniae [10]) | MIC [11] | MBC [12] | MIC (Streptococcus mutans [13]) | MIC (Streptococcus mutans [15]) | MIC (Escherichia coli [17]) | CC50 (RAW264.7 [19]) | Activity (RAW264.7 [20]) | Kd [21] | Kd [22] | Kd [23] | other results |
| --- | --- | --- | --- | --- | --- | --- | --- | --- | --- | --- | --- | --- | --- | --- | --- | --- | --- | --- | --- | --- | --- |
| H-IKNLWKKMIKLWY-OH | 3.13 µM | 3.13 µM | 3.13 µM | 6.25 µM | 6.25 µM | 6.25 µM | 1.56 µM | 3.13 µM | 6.25 µM | 12.5 µM | 3.13 µM | 6.25 µM | 6.25 µM | 3.13 µM | 3.13 µM | > 125 µM | inactive | 1 pM | 1e-09 mM | 0.001 nM | MBC (Streptococcus mutans [14]): 12.5 µM; MBC (Streptococcus mutans [16]): 12.5 µM; MBC (Escherichia coli [18]): 3.13 µM; deltaH [24]: inactive; deltaH [25]: -44.2 kcal/mol; deltaH [26]: -0.775 kcal/mol; deltaG (Homo sapiens [27]): -16.4 kcal/mol; deltaG (Homo sapiens [28]): -16.4 kcal/mol; deltaG (Homo sapiens [29]): -16.4 kcal/mol; -TdeltaS (Homo sapiens [30]): -16.3 kcal/mol; -TdeltaS (Homo sapiens [31]): 27.9 kcal/mol; -TdeltaS (Homo sapiens [32]): -15.6 kcal/mol; Activity (Staphylococcus aureus [33]): inactive; Activity (Staphylococcus aureus [34]): inactive; Activity (Staphylococcus aureus [35]): inactive; Activity (Erythrocyte): Non-Toxic; inhibition (Staphylococcus aureus [36]): Active; Activity (Cell membrane [37]): Active; Activity (Cell membrane [38]): Active |
| CC[C@H](C)[C@H](NC(C)=O)C(=O)N[C@@H](CC(N)=O)C(=O)N[C@H]1CCNC(=O)[C@H](CC(C)C)NC(=O)[C@H](CC(C)C)NC(=O)[C@H](Cc2ccccc2)NC(=O)[C@H](C)NC1=O (Ac-IN[Dab]AFLL; lactam 3-C) | > 100 µM |  | > 100 µM |  | > 100 µM |  | > 100 µM |  | > 100 µM |  | > 100 µM |  | > 100 µM | > 100 µM | > 100 µM | > 125 µM | inactive | 1 pM | 2.32 mM | 137 nM | deltaH [24]: -1.43 kcal/mol; deltaH [25]: -52.4 kcal/mol; deltaH [26]: 0.085 kcal/mol; deltaG (Homo sapiens [27]): -16.4 kcal/mol; deltaG (Homo sapiens [28]): -3.6 kcal/mol; deltaG (Homo sapiens [29]): -9.36 kcal/mol; inhibition [39]: Dose-Dependent Effect; inhibition [40]: inactive; inhibition [41]: inactive; Activity (Staphylococcus aureus [33]): Active; Activity (Staphylococcus aureus [34]): Active; Activity (Staphylococcus aureus [35]): Active; Activity (Erythrocyte): Toxic; Activity (Staphylococcus aureus [42]): Active; Activity (Staphylococcus aureus [43]): inactive; inhibition (Staphylococcus aureus [44]): Active; inhibition (Staphylococcus aureus [45]): Active; inhibition (Staphylococcus aureus [36]): Active |
| CN[C@H](CC(C)C)C(=O)N[C@H]1C(=O)N[C@@H](CC(N)=O)C(=O)N[C@H]2C(=O)N[C@H]3C(=O)N[C@H](C(=O)N[C@H](C(=O)O)c4cc(O)cc(O)c4-c4cc3ccc4O)[C@H](O)c3ccc(c(Cl)c3)Oc3cc2cc(c3O[C@@H]2O[C@H](CO)[C@@H](O)[C@H](O)[C@H]2O[C@H]2C[C@](C)(N)[C@H](O)[C@H](C)O2)Oc2ccc(cc2Cl)[C@H]1O [VANCOMYCIN] | 0.39 µM (≈ 0.565 µg/mL) | 0.39 µM (≈ 0.565 µg/mL) | 0.39 µM (≈ 0.565 µg/mL) | 0.39 µM (≈ 0.565 µg/mL) | 0.39 µM (≈ 0.565 µg/mL) | 0.39 µM (≈ 0.565 µg/mL) | 0.39 µM (≈ 0.565 µg/mL) | 0.39 µM (≈ 0.565 µg/mL) | 0.19 µM (≈ 0.275 µg/mL) | 0.19 µM (≈ 0.275 µg/mL) | 0.39 µM (≈ 0.565 µg/mL) | 0.39 µM (≈ 0.565 µg/mL) | > 100 µM | > 100 µM | > 100 µM |  |  |  |  |  | Activity (Cell membrane [37]): inactive; Activity [46]: 90% |
